Publication PMC11659602, “Discovering covalent cyclic peptide inhibitors of peptidyl arginine deiminase 4 (PADI4) using mRNA-display with a genetically encoded electrophilic warhead” (Communications Chemistry, 2024)
Several values for one entry are separate records, joined by “and”; a condition that tells them apart may be missing. Identical values can stand only once. Like-named read-outs stand apart in the source and are kept apart here. Values belong to the molecule of their own block, whether it stands above or below them. Where a SMILES comes first, the peptide text is derived from it. Bridges are numbered along the chain shown (N, C = ends). [ ]: non-standard residue; d: D form. Orn(fluoroacetimidoyl) = N=C(CF)NCCC[C@H](N)C(=O)O

Legend:
PADIs 1-4 = test: COLDER citrullination activity of purified PADIs 1-4 and PADI4 C645A (no inhibitor); format: biochemical, human; parameters: key to Citrullination activity of PADI4 WT / C645A (Figure S4c): absorbance at 540 nm (colorimetric citrulline readout); conditions: for Absorbance at 540 nm: purified PADI enzyme, no inhibitor (Figure S10); for Citrullination activity of PADI4 WT / C645A (Figure S4c): no inhibitor
Experimental: (§1) PADI4 citrullination activity was analysed using the COLDER assay in 96-well plates. Peptide dilutions were prepared from a 500 µM stock, to give a 10 times concentrated dilution series (500 µM, 300 µM, 100 µM, 30 µM, 10 µM, 3 µM, 1 µM, 0.3 µM, 0.1 µM and 0.03 µM) in COLDER buffer (50 mM HEPES, 150 mM NaCl and 2 mM DTT, pH 7.5) containing 1% DMSO. In triplicate, each was diluted 10-fold further when mixed with 50 nM His-PADI4, 0.6 mg/mL BSA and 10 mM CaCl2, in COLDER buffer. With or without one hour of incubation, 10 mM N^α-Benzoyl-L-arginine ethyl ester hydrochloride (BAEE, Merck) was added to initiate the reaction (50 µL final volume). After 30 min at rt, EDTA (50 mM final concentration) was used to quench the reaction and 200 µL of COLDER solution containing 20 mM Diacetyl monoxime/2,3-butanedione monoxime (Merck), 0.5 mM Thiosemicarbazide (Acros Organics), 2.25 M H3PO4, 4.5 M H2SO4 and 1.5 mM NH4Fe(SO4)2.12H2O was added to each well. Samples were incubated for 20 min at 95 °C before measuring absorbance at 540 nm on a CLARIOstar Plus (BMG LABTECH). Data analysis was performed with GraphPad Prism. Data are presented as the average ± standard error of the mean from at least two independent replicates.

PADI4 [1] = target: T1, PADI4 (Homo sapiens, UniProt Q9UM07); test: Surface plasmon resonance (SPR), single cycle kinetics; format: binding
T1 construct: His6; made in house
T1 sequence (Q9UM07 whole entry): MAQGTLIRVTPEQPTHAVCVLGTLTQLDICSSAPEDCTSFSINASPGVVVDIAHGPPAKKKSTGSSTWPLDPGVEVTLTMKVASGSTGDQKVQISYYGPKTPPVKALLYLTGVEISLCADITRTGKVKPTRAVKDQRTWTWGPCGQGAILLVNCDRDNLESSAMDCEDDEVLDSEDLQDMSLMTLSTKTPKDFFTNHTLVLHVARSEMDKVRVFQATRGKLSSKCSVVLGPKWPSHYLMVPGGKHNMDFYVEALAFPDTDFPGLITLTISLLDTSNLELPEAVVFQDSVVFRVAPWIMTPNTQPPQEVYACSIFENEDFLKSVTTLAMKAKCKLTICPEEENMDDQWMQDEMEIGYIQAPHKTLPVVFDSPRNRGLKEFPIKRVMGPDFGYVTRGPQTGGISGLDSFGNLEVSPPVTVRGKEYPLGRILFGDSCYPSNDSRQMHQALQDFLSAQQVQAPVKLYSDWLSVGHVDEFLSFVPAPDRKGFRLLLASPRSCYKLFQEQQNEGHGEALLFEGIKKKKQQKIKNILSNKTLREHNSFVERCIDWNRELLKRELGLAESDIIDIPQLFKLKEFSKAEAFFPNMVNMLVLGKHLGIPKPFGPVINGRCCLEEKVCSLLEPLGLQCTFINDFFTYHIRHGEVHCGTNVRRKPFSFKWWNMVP
Experimental: S8. Surface plasmon resonance (SPR)
Using a Biacore S200 (GE Healthcare), biotinylated His-PADI4 (80 nM) was immobilised on a CAP chip (GE Healthcare) to a response unit of approx. 3000. At 25 °C, single cycle kinetics mode was used with 5 samples of a 3-fold dilution series of peptides PADI4_3_H4(2), cP4_2, […]
mM HEPES, 150 mM NaCl, 10 mM CaCl2, 0.05% Tween-20, 0.1% DMSO (pH 7.5). After each cycle, regeneration of the chip was carried out as per the manufacturer’s protocol. Data were analysed with the Biacore S200 Evaluation Software, each in triplicate. Warhead-containing peptides were analysed using the two-state reaction model, with the rate constant for the reverse second step (k-2) set to zero. The equilibrium constant of the reversible binding step, Ki, was calculated as the ratio of k-1/k+1 and the rate constant of the irreversible chemical step, kinact, as k+2. The Arg4, Cit4 and Me4 peptides were fitted using a 1:1 binding model. […]

PADI4 [2] = target: T1, PADI4; test: Incubation time-dependent COLDER assay IC50(t), Krippendorff fit; format: biochemical; conditions: for IC50: replicates, read-out: apparent IC50
Experimental: To determine KI and kinact of covalent peptide inhibitors, COLDER assays were used[52]. Peptide dilutions were prepared using 5-fold dilutions from 500 µM and 300 µM to 0.8 µM and 2.4 µM, respectively, at 1% DMSO in COLDER buffer (50 mM HEPES, 150 mM NaCl and 2 mM DTT, pH 7.5). The 9 peptide dilutions were added to a 96-well plate, alongside a 1% DMSO control. An equal volume of 10 mM BAEE was added to each well and the solution was homogenised by pipette mixing. This was mixed with 50 nM His-PADI4, 0.6 mg/mL BSA and 10 mM CaCl2, in COLDER buffer, to bring the final volume to 300 µL in each well. Alternatively, His-PAD1 (100 nM) /His-PADI2 (100 nM) /His-PADI3 (250 nM) were used. For assays with PADI1 and PADI3, 10 mM N^α-benzoyl-L-arginine methyl […] (BAME) was used as the substrate instead of BAEE[48],[58],[59]. At 15-minute intervals, for 5 timepoints, 50 µL of solution was taken from each well and quenched with 10 µL EDTA (300 mM). 200 µL of COLDER solution containing 20 mM diacetyl monoxime/2,3-butanedione monoxime (Merck), 0.5 mM thiosemicarbazide (Acros Organics), 2.25 M H3PO4, 4.5 M H2SO4 and 1.5 mM NH4Fe(SO4)2.12H2O was added to each well. Samples were incubated for 20 min at 95 °C before measuring absorbance at 540 nm on a CLARIOstar Plus (BMG LABTECH). IC50 values for each time point were determined using non-linear regression with GraphPad Prism. Incubation time–dependent potency IC50(t) against incubation time was fitted to the Krippendorff equation (below) to determine KI and kinact using a Python script[53],[59]. […] IC50t=KI1+S/KM⋅2−2e^−ηIC50⋅kinact⋅t/ηIC50⋅kinact⋅t−1 WhereηIC50=IC50t/KI1+S/KM+IC50t

PADI4 [3] = target: T1, PADI4; test: COLDER inhibition assay, BAEE substrate, with or without 1 h preincubation; format: biochemical; conditions: for IC50: COLDER; for remaining activity at 0.003 µM: peptide 0.003 µM; for remaining activity at 0.01 µM: peptide 0.01 µM; for remaining activity at 0.03 µM: peptide 0.03 µM
Experimental: as §1

[4] = Krippendorff fit of IC50 vs time
[5] = T=0, values starred, read-out: PADI4 activity normalised to 0.1% DMSO
[6] = T=1, read-out: PADI4 activity normalised to 0.1% DMSO

Molecule: PADI2
Absorbance at 540 nm (PADIs 1-4): 0.974 and 1.004 and 1.007 and 0.7767 and 0.7637 and 0.7657

Molecule: WT
Citrullination activity of PADI4 WT / C645A (Figure S4c) (PADIs 1-4; +EDTA): 0.259 and 0.261 and 0.247 and 0.193 and 0.23 and 0.231 | Citrullination activity of PADI4 WT / C645A (Figure S4c) (PADIs 1-4; -EDTA): 1.114 and 1.151 and 1.275 and 1.3 and 1.248

Molecule: C645A
Citrullination activity of PADI4 WT / C645A (Figure S4c) (PADIs 1-4; +EDTA): 0.268 and 0.278 and 0.279 and 0.186 and 0.254 and 0.214 | Citrullination activity of PADI4 WT / C645A (Figure S4c) (PADIs 1-4; -EDTA): 0.211 and 0.22 and 0.222 and 0.281 and 0.285 and 0.262

kinact/KI (PADI4 [1]): 33400 M⁻¹ s⁻¹ | k2 / kinact (PADI4 [1]; each replicate): 0.0034 s⁻¹ | kinact (PADI4 [1]; each replicate, read-out: k2 / kinact): 0.0041 s⁻¹ | kinact (PADI4 [1]; two-state reaction model, k+2, read-out: SPR kinact (converted)): 0.00383 s⁻¹ | Ki (PADI4 [1]; two-state reaction model, k-1/k+1): 120 ± 100 nM | kinact/KI (PADI4 [2]): 1450 M⁻¹ s⁻¹ | IC50 (PADI4 [2]; 15 mins): 7240 nM and 6940 nM and 5530 nM | IC50 (PADI4 [2]; 30 mins): 3820 nM and 3290 nM and 3600 nM | IC50 (PADI4 [2]; 45 mins): 2720 nM and 2380 nM and 2640 nM | IC50 (PADI4 [2]; 60 mins): 2150 nM and 2090 nM and 2330 nM | IC50 (PADI4 [2]; 75 mins): 1960 nM and 1810 nM and 2180 nM | Ki (PADI4 [2]; [4]): 1500 ± 300 nM | kinact (PADI4 [2]; [4]): 0.00217 s⁻¹ | IC50 (PADI4 [3]; 1 h preincubation of peptide and PADI4, 10 mM CaCl2, read-out: IC50 Values 1 h preincubation): 93 ± 2 nM | IC50 (PADI4 [3]; no preincubation of peptide and PADI4, 10 mM CaCl2, read-out: IC50 Values 0 h preincubation): 3100 ± 10 nM | remaining activity at 0.003 µM (PADI4 [3]; [5]): 93.1% | remaining activity at 0.003 µM (PADI4 [3]; [6]): 98.1% | remaining activity at 0.01 µM (PADI4 [3]; [5]): 92% | remaining activity at 0.01 µM (PADI4 [3]; [6]): 81.1% | remaining activity at 0.03 µM (PADI4 [3]; T=0, read-out: PADI4 activity normalised to 0.1% DMSO): 91.3% | remaining activity at 0.03 µM (PADI4 [3]; [6]): 82.2% | remaining activity at 0.1 µM (PADI4 [3]; peptide 0.1 µM, T=0, read-out: PADI4 activity normalised to 0.1% DMSO): 90.6% | remaining activity at 0.3 µM (PADI4 [3]; peptide 0.3 µM, T=0, read-out: PADI4 activity normalised to 0.1% DMSO): 91.5% | remaining activity at 1 µM (PADI4 [3]; peptide 1 µM, T=0, read-out: PADI4 activity normalised to 0.1% DMSO): 75.7% | remaining activity at 3 µM (PADI4 [3]; peptide 3 µM, T=0, read-out: PADI4 activity normalised to 0.1% DMSO): 48.4% | remaining activity at 10 µM (PADI4 [3]; peptide 10 µM, T=0, read-out: PADI4 activity normalised to 0.1% DMSO): 19.7%
Molecule: N=C(N)NCCC[C@@H]1NC(=O)[C@H](CCCCN)NC(=O)[C@H](CC(N)=O)NC(=O)[C@H](Cc2ccccc2)NC(=O)[C@H](CC(=O)O)NC(=O)[C@H](Cc2c[nH]c3ccccc23)NC(=O)[C@H](CC(N)=O)NC(=O)[C@H](CCCNC(=N)CF)NC(=O)[C@H](Cc2ccc(O)cc2)NC(=O)[C@H](Cc2c[nH]c3ccccc23)NC(=O)[C@@H](Cc2ccc(O)cc2)NC(=O)CSC[C@@H](C(=O)NCC(N)=O)NC1=O [cP4_10, yWY(2)NWDFNKRCG] ({CH2CO}-[dY]WY[Orn(fluoroacetimidoyl)]NWDFNKRCG-NH2; thioether N-12)

Molecule: PADI4
Absorbance at 540 nm (PADIs 1-4): 1.538 and 1.537 and 1.638 and 1.921 and 1.811 and 1.856

B1: PADI3 (protein, UniProt Q9ULW8 1-664, looked up)
Protein-arginine deiminase …: MSLQRIVRVSLEHPTSAVCVAGVETLVDIYGSVPEGTEMFEVYGTPGVDIYISPNMERGRERADTRRWRFDATLEIIVVMNSPSNDLNDSHVQISYHSSHEPLPLAYAVLYLTCVDISLDCDLNCEGRQDRNFVDKRQWVWGPSGYGGILLVNCDRDDPSCDVQDNCDQHVHCLQDLEDMSVMVLRTQGPAALFDDHKLVLHTSSYDAKRAQVFHICGPEDVCEAYRHVLGQDKVSYEVPRLHGDEERFFVEGLSFPDAGFTGLISFHVTLLDDSNEDFSASPIFTDTVVFRVAPWIMTPSTLPPLEVYVCRVRNNTCFVDAVAELARKAGCKLTICPQAENRNDRWIQDEMELGYVQAPHKTLPVVFDSPRNGELQDFPYKRILGPDFGYVTREPRDRSVSGLDSFGNLEVSPPVVANGKEYPLGRILIGGNLPGSSGRRVTQVVRDFLHAQKVQPPVELFVDWLAVGHVDEFLSFVPAPDGKGFRMLLASPGACFKLFQEKQKCGHGRALLFQGVVDDEQVKTISINQVLSNKDLINYNKFVQSCIDWNREVLKRELGLAECDIIDIPQLFKTERKKATAFFPDLVNMLVLGKHLGIPKPFGPIINGCCCLEEKVRSLLEPLGLHCTFIDDFTPYHMLHGEVHCGTNVCRKPFSFKWWNMVP
Absorbance at 540 nm (PADIs 1-4): 1.346 and 1.369 and 1.38 and 1.26 and 1.243 and 1.268

B2: PADI1 (protein, UniProt Q9ULC6 1-663, looked up)
Protein-arginine deiminase …: MAPKRVVQLSLKMPTHAVCVVGVEAHVDIHSDVPKGANSFRVSGSSGVEVFMVYNRTRVKEPIGKARWPLDTDADMVVSVGTASKELKDFKVRVSYFGEQEDQALGRSVLYLTGVDISLEVDTGRTGKVKRSQGDKKTWRWGPEGYGAILLVNCDRDNHRSAEPDLTHSWLMSLADLQDMSPMLLSCNGPDKLFDSHKLVLNVPFSDSKRVRVFCARGGNSLSDYKQVLGPQCLSYEVERQPGEQEIKFYVEGLTFPDADFLGLVSLSVSLVDPGTLPEVTLFTDTVGFRMAPWIMTPNTQPPEELYVCRVMDTHGSNEKFLEDMSYLTLKANCKLTICPQVENRNDRWIQDEMEFGYIEAPHKSFPVVFDSPRNRGLKDFPYKRILGPDFGYVTREIPLPGPSSLDSFGNLDVSPPVTVGGTEYPLGRILIGSSFPKSGGRQMARAVRNFLKAQQVQAPVELYSDWLSVGHVDEFLTFVPTSDQKGFRLLLASPSACLKLFQEKKEEGYGEAAQFDGLKHQAKRSINEMLADRHLQRDNLHAQKCIDWNRNVLKRELGLAESDIVDIPQLFFLKNFYAEAFFPDMVNMVVLGKYLGIPKPYGPIINGRCCLEEKVQSLLEPLGLHCIFIDDYLSYHELQGEIHCGTNVRRKPFPFKWWNMVP
Absorbance at 540 nm (PADIs 1-4): 1.397 and 1.419 and 1.464 and 1.243 and 1.309 and 1.332
